# Test system: Human primary T cells
# Test: IL-2 ELISA, Human Primary T Cell, Anti-CD3+CD28+ (Whole Cell Assay)
# Assay type: cell-based
# Settings: IL-2 by ELISA, human primary T cells pre-incubated with compound 1 hr, stimulated with αCD3 and αCD28, 24 hours
# Experimental: IL-2 ELISA, Human Primary T Cell, Anti-CD3+CD28+ (Whole Cell Assay)
# Human primary T cell isolation and culture: Human primary T cells were prepared as follows. Whole blood was obtained from a healthy volunteer, mixed 1:1 with PBS, layered on to Ficoll Hypaque (Amersham Pharmacia Biotech, Piscataway, N.J., Catalog #17-1440-03) in 2:1 blood/PBS:ficoll ratio and centrifuged for 30 min at 4° C. at 1750 rpm. The cells at the serum: ficoll interface were recovered and washed twice with 5 volumes of PBS. These freshly isolated human peripheral blood mononuclear cells were cultured in Yssel's medium containing 40 U/mL IL2 in a flask pre-coated with 1 μg/mL αCD3 and 5 μg/mL αCD28 (Anti-Human CD3, BD Pharmingen Catalog #555336, Anti-Human CD28, Beckman Coulter Catalog #1M1376). The cells were stimulated for 3-4 days, then transferred to a fresh flask and maintained in RPMI (RPMI-1640 with L-Glutamine; Mediatech, Inc., Herndon Va., cat. #10-040-CM) with 10% FBS and 40 U/mL IL-2. The primary T-cells were then washed twice with PBS to remove the IL-2.
# Primary T cell stimulation and IL2 ELISA: Human primary T cells (100,000 cells per well) were pre-incubated with or without test compound in Yssel's medium for 1 hr at 37° C. Cells were then stimulated by transferring them to round-bottom 96-well plates pre-coated with 1 μg/ml αCD3 and 5 μg/ml αCD28. For counter assay, cells were instead stimulated by adding 8× stock solutions of PMA and ionomycin in Yssels (for final concentrations of 0.5 ng/ml PMA and 0.1 μM ionomycin, both from Calbiochem). Cells were incubated at 37° C. for 24 hours before 100 μL supernatants were harvested for quantification of IL-2 by ELISA using Human IL-2 Duoset ELISA Kit from R and D Systems, Cat. # DY202E.
structure (smiles),measurement,value
"CC1(C)CC(Nc2nc(Nc3cc(-n4cnnn4)c(C4CC4)cc3F)ncc2C#N)CC(C)(C)N1 [Compound I-2, 2-(4-Cyclopropyl-2-fluoro-5-tetrazol-1-yl-phenylamino)-4-(2,2,6,6-tetramethyl-piperidin-4-ylamino)-pyrimidine-5-carbonitrile]",IC50,< 0.25 µM
"CC1(C)CC(Nc2nc(Nc3cc(-n4cnnn4)c(C4CC4)cc3F)ncc2C(N)=O)CC(C)(C)N1 [Compound I-3, 2-(4-Cyclopropyl-2-fluoro-5-tetrazol-1-yl-phenylamino)-4-(2,2,6,6-tetramethyl-piperidin-4-ylamino)-pyrimidine-5-carboxylic acid amide]",IC50,0.5 to 1 µM
"CC1(C)CC(Nc2nc(Nc3cc(F)c(C4CC4)c(-n4cnnn4)c3)ncc2C#N)CC(C)(C)N1 [Compound I-4, 2-(4-Cyclopropyl-3-fluoro-5-tetrazol-1-yl-phenylamino)-4-(2,2,6,6-tetramethyl-piperidin-4-ylamino)-pyrimidine-5-carbonitrile]",IC50,< 0.25 µM
"CC1(C)CC(Nc2nc(Nc3cc(F)c(C4CC4)c(-n4cnnn4)c3)ncc2F)CC(C)(C)N1 [Compound I-5, N2-(4-Cyclopropyl-3-fluoro-5-tetrazol-1-yl-phenyl)-5-fluoro-N4-(2,2,6,6-tetramethyl-piperidin-4-yl)-pyrimidine-2,4-diamine]",IC50,< 0.25 µM
"CC1(C)CC(Nc2nc(Nc3cc(C4CC4)c(F)c(-n4cnnn4)c3)ncc2C#N)CC(C)(C)N1 [Compound I-6, 2-(3-Cyclopropyl-4-fluoro-5-tetrazol-1-yl-phenylamino)-4-(2,2,6,6-tetramethyl-piperidin-4-ylamino)-pyrimidine-5-carbonitrile]",IC50,< 0.25 µM
"CC1(C)CC(Nc2nc(Nc3cc(C4CC4)c(F)c(-n4cnnn4)c3)ncc2F)CC(C)(C)N1 [Compound I-7, N2-(3-Cyclopropyl-4-fluoro-5-tetrazol-1-yl-phenyl)-5-fluoro-N4-(2,2,6,6-tetramethyl-piperidin-4-yl)-pyrimidine-2,4-diamine]",IC50,< 0.25 µM
"CC(C)c1cc(F)c(Nc2ncc(C#N)c(NC3CC(C)(C)NC(C)(C)C3)n2)cc1-n1cnnn1 [Compound I-8, 2-(2-Fluoro-4-isopropyl-5-tetrazol-1-yl-phenylamino)-4-(2,2,6,6-tetramethyl-piperidin-4-ylamino)-pyrimidine-5-carbonitrile]",IC50,< 0.25 µM
"CC(C)c1ccc(Nc2ncc(F)c(NC3CC(C)(C)NC(C)(C)C3)n2)cc1-n1cnnn1 [Compound I-9, 5-Fluoro-N2-(4-isopropyl-3-tetrazol-1-yl-phenyl)-N4-(2,2,6,6-tetramethyl-piperidin-4-yl)-pyrimidine-2,4-diamine]",IC50,< 0.25 µM
"CC(C)c1ccc(Nc2ncc(C(N)=O)c(NC3CC(C)(C)NC(C)(C)C3)n2)cc1-n1cnnn1 [Compound I-10, 2-(4-Isopropyl-3-tetrazol-1-yl-phenylamino)-4-(2,2,6,6-tetramethyl-piperidin-4-ylamino)-pyrimidine-5-carboxylic acid amide]",IC50,0.25 to 0.5 µM
"CC(C)c1ccc(Nc2ncc(C#N)c(NC3CC(C)(C)NC(C)(C)C3)n2)cc1-n1cnnn1 [Compound I-11, 2-(4-Isopropyl-3-tetrazol-1-yl-phenylamino)-4-(2,2,6,6-tetramethyl-piperidin-4-ylamino)-pyrimidine-5-carbonitrile]",IC50,< 0.25 µM
"CC1(C)CC(Nc2nc(Nc3cc(-n4cnnn4)c(C4CC4)cc3F)ncc2F)CC(C)(C)N1 [Compound I-12, N2-(4-Cyclopropyl-2-fluoro-5-tetrazol-1-yl-phenyl)-5-fluoro-N4-(2,2,6,6-tetramethyl-piperidin-4-yl)-pyrimidine-2,4-diamine]",IC50,< 0.25 µM
"CC1(C)CC(Nc2nc(Nc3cc(-n4cnnn4)ccc3F)ncc2F)CC(C)(C)N1 [Compound I-13, 5-Fluoro-N2-(2-fluoro-5-tetrazol-1-yl-phenyl)-N4-(2,2,6,6-tetramethyl-piperidin-4-yl)-pyrimidine-2,4-diamine]",IC50,< 0.25 µM
"CN1C(C)(C)CC(Nc2nc(Nc3cc(-n4cnnn4)ccc3F)ncc2F)CC1(C)C [Compound I-14, 5-Fluoro-N2-(2-fluoro-5-tetrazol-1-yl-phenyl)-N4-(1,2,2,6,6-pentamethyl-piperidin-4-yl)-pyrimidine-2,4-diamine]",IC50,< 0.25 µM
"CC1(C)CC(Nc2nc(Nc3ccc(C4CC4)c(-n4nnnc4C(F)(F)F)c3)ncc2F)CC(C)(C)N1 [Compound I-15, N2-[4-Cyclopropyl-3-(5-trifluoromethyl-tetrazol-1-yl)-phenyl]-5-fluoro-N4-(2,2,6,6-tetramethyl-piperidin-4-yl)-pyrimidine-2,4-diamine]",IC50,< 0.25 µM
"CC(C)c1nnnn1-c1cc(Nc2ncc(F)c(NC3CC(C)(C)NC(C)(C)C3)n2)c(F)cc1C1CC1 [Compound I-16, N2-(4-cyclopropyl-2-fluoro-5-(5-isopropyl-1H-tetrazol-1-yl)phenyl)-5-fluoro-N4-(2,2,6,6-tetramethylpiperidin-4-yl)pyrimidine-2,4-diamine]",IC50,< 0.25 µM
"CC1(C)CC(Nc2nc(Nc3cc(-n4nnnc4C4CC4)c(C4CC4)cc3F)ncc2F)CC(C)(C)N1 [Compound I-17, N2-(4-cyclopropyl-5-(5-cyclopropyl-1H-tetrazol-1-yl)-2-fluorophenyl)-5-fluoro-N4-(2,2,6,6-tetramethylpiperidin-4-yl)pyrimidine-2,4-diamine]",IC50,< 0.25 µM
"Cc1nnnn1-c1cc(Nc2ncc(F)c(NC3CC(C)(C)NC(C)(C)C3)n2)c(F)cc1C1CC1 [Compound I-18, N2-(4-cyclopropyl-2-fluoro-5-(5-methyl-1H-tetrazol-1-yl)phenyl)-5-fluoro-N4-(2,2,6,6-tetramethylpiperidin-4-yl)pyrimidine-2,4-diamine]",IC50,< 0.25 µM
"CC1(C)CC(Nc2nc(Nc3cc(-n4nnnc4C(F)(F)F)c(C4CC4)cc3F)ncc2F)CC(C)(C)N1 [Compound I-19, N2-(4-cyclopropyl-2-fluoro-5-(5-(trifluoromethyl)-1H-tetrazol-1-yl)phenyl)-5-fluoro-N4-(2,2,6,6-tetramethylpiperidin-4-yl)pyrimidine-2,4-diamine]",IC50,< 0.25 µM
"CC1(C)CC(Nc2nc(Nc3cc(-n4nnnc4CF)c(C4CC4)cc3F)ncc2F)CC(C)(C)N1 [Compound I-20, N2-(4-cyclopropyl-2-fluoro-5-(5-(fluoromethyl)-1H-tetrazol-1-yl)phenyl)-5-fluoro-N4-(2,2,6,6-tetramethylpiperidin-4-yl)pyrimidine-2,4-diamine]",IC50,< 0.25 µM
